Experimental data from patent US20100173872A1, “Method and Composition for Treating Alzheimer's Disease and Dementias of Vascular Origin” (THE BOARD OF TRUSTEES OF THE UNIVERSITY OF ILLINOIS, priority 2002, published 2010).
Bridge positions count the residues as written; N and C are the ends. Square brackets hold non-standard residues; d marks the D form. Ends that are not written are not given here. Peptide text beside a SMILES is read from it.

Assays:
ET receptor = settings: cited from earlier work; for effect of pretreatment on systemic hemodynamic and regional circulatory effects of ET-1: BQ123 10 μg ICV, centrally administered ET-1; for effect on hemodynamics or regional blood circulation: specific ETB receptor agonists, separate experiments
[1] = tested on: sympathetic nerve activity; settings: ET-1 90 ng; cited from earlier work
[2] = Effect of ET-1 infusion on brain blood flow in control and Aβ-treated rats; type: in vivo, rat; settings: 30 minutes infusion; Aβ-treated vs control rats
Experimental: Studies in 3-month-old rats to determine the effect of Aβ on systemic hemodynamics and regional blood circulation were performed. […] The effect of ET-1 on the brain blood flow of control and Aβ treated rats also was determined (FIG. 4).
Once infusion was stopped, a rebound increase in blood flow was observed. It can be inferred that Aβ increased the endogenous concentration of ET-1, leading to vasoconstriction. Accordingly, the administration of an ET-1 antagonist can cause a rebound increase in blood flow.

Compound: CC(C)NCC(O)COc1cccc2ccccc12 (stereo not drawn) [propranolol]
- effect of pretreatment on systemic hemodynamic and regional circulatory effects of ET-1 (ET receptor): blocked

Compound: ET-2: ETA receptor agonist (CSCSSWLDKECVYFCHLDIIW; disulfide 1-15, 3-11; ends not checked; UniProt P20800 49-69, looked up)
- intensity of effects in comparison to ET-1 and SRT6b (ET receptor; ET-2 90 ng ICV): less intense

Compound: sarafotoxin 6c
- effect on hemodynamics or regional blood circulation (ET receptor): did not affect

Compound: ET-1: endothelin-1, a potent cerebrovascular vasoconstrictor peptide; ETA receptor agonist (CSCSSLMDKECVYFCHLDIIW; disulfide 1-15, 3-11; ends not checked; UniProt P05305 53-73, looked up)
- sympathetic nerve activity [1]: significantly decreased
- cardiac output and stroke volume (ET receptor; 45 ng ICV): significant decreases
- total peripheral resistance (ET receptor; 45 ng ICV): remained unchanged
- effect of ET-1 infusion on brain blood flow [2]: more marked in Aβ-treated rats

Compound: ET-3: specific ETB receptor agonist
- effect on hemodynamics or regional blood circulation (ET receptor): did not affect

Compound: CC(C)C[C@@H]1NC(=O)[C@@H](C(C)C)NC(=O)[C@@H]2CCCN2C(=O)[C@@H](CC(=O)O)NC(=O)[C@@H](Cc2c[nH]c3ccccc23)NC1=O [BQ123, cyclo(-D-Trp-D-Asp-Pro-D-Val-Leu-)] (cyclo(L[dW][dD]P[dV]))
- effect of pretreatment on systemic hemodynamic and regional circulatory effects of ET-1 (ET receptor): blocked
